Patent publication US20170051149A1, “AZOARYLS AS REVERSIBLY MODULATABLE TUBULIN INHIBITORS” (ECOLE NORMALE SUPERIEURE DE LYON, priority 2014, published 2017)
Counter-ions that a name gives are not always drawn.

How the values were obtained:
[1] = thermal reversion halflife of spontaneous cis->trans isomerisation; format: physicochemical; details: PBS pH = 7.4, 20% MeCN
From the text: Finally, trends in τ were ascertained by establishing the PSS at λstrong, then turning off the light source at time t0, and measuring A(λstrong, t) over time. Data were acquired for half an hour, or else the first three halflives (whichever was the shorter period), then fitted to the equation:
A(λstrong,t)=A(λstrong,dark)−[A(λstrong,dark)−A(λstrong,t0)]×e^−kt
This fit was used to return an in vitro halflife τ* for the cis->trans spontaneous thermal reversion isomerisation process, defined as τ=ln 2/k. It should be noted however, that azoaryl compounds' thermal reversion rates are known to depend strongly upon their microenvironment, such as pH and solvent/solvation effects^[7,38]. This was shown for compound (I.1), where a change of only 1.4 pH units gave a 25% change in τ*; note that different compounds are expected to respond very differently to changes in pH so no unifying trends are expected. Therefore the τ* acquired in vitro were considered appropriate only for qualitative intercomparison between samples (trend of τ* vs structure), rather than quantitative prediction of the τ values which might be experienced in cellulo or in vivo. Indeed, these in vitro τ* values appeared at least three times longer than what would have been expected based on in cellulo experiments where the pause time between activating pulses was varied.
Thermal reversion times were measured as described above. Those for selected compounds are presented below (Table 2).

HeLa cells = assay: cytotoxicity by crystal violet staining; format: cell-based; details: 40 h
Procedure: Seven of the compounds according to the invention were selected for biological tests. Their cytotoxicity was assessed using crystal violet staining as adapted from standard procedure^[31]. Briefly, HeLa cells were seeded on 96-well plates, treated with the given concentrations of the selected compound, and exposed or not to the pulse protocol of illumination with light at 390 nm (pulses of 75 ms every 15 s). After 40 h cells were stained with crystal violet solution (0.5% crystal violet in 20% methanol) for 10 min. Unbound crystal violet was removed by rinsing with distilled water and cells were air-dried. Crystal violet was subsequently eluted from cells with 0.1 M sodium citrate in 50% ethanol. The absorbance of crystal violet is proportional to the cell number and was determined at 590 nm with a FLUOstar Omega microplate reader (BMG Labtech).
Each compound was tested at 6 doses: 100 nM, 500 nM, 1 μM, 2 μM, 5 μM and 10 μM. In order to ensure their solubility in the cell culture media, DMSO was used as a co-solvent, and to provide comparability between all samples the volume of DMSO was adjusted to obtain its final concentration as 1% in the cell culture media for all the compounds at all concentrations tested.
Results presented in Table 4 below are expressed as a fold growth relative to the control growth of the cells treated only with a co-solvent (1% DMSO), and are represented as a mean value from triplicates coming from a representative experiment.

[2] = UV-Vis absorption spectra of trans and cis isomers (λstrong, εE, λiso); format: physicochemical; details: PBS pH = 7.4, 20% MeCN
Procedure: A(λmeas, λirrad) is used to indicate the measured UV-Vis absorption spectrum in the range 340 nm<λmeas<650 nm, as a function of the irradiating wavelength λirrad once PSS(λirrad) has been established. UV-Vis measurement of A(λmeas, λirrad) was performed. It was considered that the PSS had been established when the absorbance profile ceased to alter under continued irradiation. An isosbestic point (wavelength λiso) was found for each compound by examining where the absorption A(λmeas) was invariant with respect to changing λirrad. A(λmeas, dark) was also acquired with samples that had been kept in the dark for at least several hours, and it was assumed that no significant spectral contribution from the cis isomer was present in these spectra. […]
HPLC (high-performance liquid chromatography) was then used as described in Part A to measure ε*E(λ) and ε*Z(λ) (the separated absorption profiles of trans and cis isomers respectively, in arbitrary units which are not intercomparable in an absolute sense). It was approximated that these spectra would be identical in shape if measured under the UV-Vis conditions, so once ε*E(λ) and ε*Z(λ) were scaled appropriately relative to each other, these scaled spectra could be used to deconvolute A(λmeas, λirrad). This approximation was considered useful especially in the regions of greatest spectral interest, ie. regions of relatively strong absorption (since only rather well-absorbed wavelengths will allow significant photoisomerisation under finite photon flux). To place the arbitrary-unit absorption spectra on an absolute scale, the maximal absorption wavelength λstrong of the trans-isomer was first selected by examining A(λmeas, dark): typically, λstrong≈380 nm. with Expressing A(λstrong, dark) in units M^−1cm^−1, ε*E(λstrong) was then scaled so that εE(λstrong)=A(λstrong, dark), giving:
εE(λ)=ε*E(λ)×[A(λstrong,dark)/ε*E(λstrong)]
and the isosbestic point was used to scale the cis-isomer spectrum as per:
εZ(λ)=ε*Z(λ)×[εE(λiso)/ε*Z(λiso)]
However, using A(λstrong, dark) was preferred, since A(λiso) was typically so much smaller that the standard deviation in the scaled absorptivities which it generated was far greater.
Absorption spectra in cuvette (“UV-Vis”) were acquired on a Varian CaryScan 50 (1 cm, 100 μL or 1 mL volume) with Peltier cell temperature control unit maintained at 37° C., in PBS at pH˜7.4 containing a low percentage of cosolvent if needed (typically 2% MeCN or 5% DMSO). A ThorLabs Polychrome V monochromator with a fibre optic cable output directed into the cuvette was used to perform photoisomerisation studies by UV-Vis spectrophotometry although single LEDs of approximately 10-20 mW output, 15-20° cone angle, and 10-15 nm bandwidth FWHM, obtained commercially from Roithner Lasertechnik GmbH, were equally successful in providing repeatable monochromatic photoisomerisation. Separated spectra of trans and […] forms were acquired from the inline Diode Array Detector on the AGILENT 1260 SL coupled LC-MS system after HPLC separation. Fluorescence spectrophotometry (excitation and emission spectra) were acquired on a Varian CaryEclipse fluorescence spectrophotometer.
By the above procedure, the trans- and cis-isomers of each species were separated by HPLC as described in Part A, and ε*E(λ) and ε*Z(λ) were measured on the inline ultraviolet/visible Diode Array Detector; these were then scaled as outlined above. The parameters λstrong, εE(λstrong) and λiso are tabulated for selected compounds below (Table 1).

[3] = 100 nM, 390 nm (75 ms every 15 s)
[4] = 500 nM, 390 nm (75 ms every 15 s)
[5] = 1 μM, 390 nm (75 ms every 15 s)
[6] = 2 μM, 390 nm (75 ms every 15 s)
[7] = 5 μM, 390 nm (75 ms every 15 s)
[8] = 10 μM, 390 nm (75 ms every 15 s)

Structure (SMILES) | τ, reversion time [1] [min] | mean fold growth (HeLa cells; [3]) [fold] | mean fold growth (HeLa cells; 100 nM, Dark) [fold] | mean fold growth (HeLa cells; [4]) [fold] | mean fold growth (HeLa cells; 500 nM, Dark) [fold] | mean fold growth (HeLa cells; [5]) [fold] | mean fold growth (HeLa cells; 1 μM, Dark) [fold] | mean fold growth (HeLa cells; [6]) [fold] | mean fold growth (HeLa cells; 2 μM, Dark) [fold] | mean fold growth (HeLa cells; [7]) [fold] | mean fold growth (HeLa cells; 5 μM, Dark) [fold] | mean fold growth (HeLa cells; [8]) [fold] | mean fold growth (HeLa cells; 10 μM, Dark) [fold] | εE(λstrong) [2] [M⁻¹ cm⁻¹] | λiso [2] [nm] | λstrong [2] [nm]
COc1ccc(N=Nc2cc(OC)c(OC)c(OC)c2)cc1 [I.6, 1-(4-methoxyphenyl)-2-(3,4,5-trimethoxyphenyl)diazene, reference compound] | 83 | 0.99 | 1.00 | 1.09 | 1.07 | 0.79 | 0.96 | 0.47 | 0.96 | 0.68 | 0.93 | 0.37 | 0.88 | 16300 | 445 | 365
COc1ccc(N=Nc2cc(OC)c(OC)c(OC)c2)c(F)c1F [I.5, 1-(2,3-difluoro-4-methoxyphenyl)-2-(3,4,5-trimethoxyphenyl)diazene] | 134 |  |  |  |  |  |  |  |  |  |  |  |  | 19578 | 450 | 365
COc1ccc(N=Nc2cc(F)c(OC)c(F)c2)cc1 [I.9, 1-(3,5-difluoro-4-methoxyphenyl)-2-(4-methoxyphenyl)diazene] | 116 |  |  |  |  |  |  |  |  |  |  |  |  | 11400 | 430 | 355
COc1ccc(N=Nc2cc(OC)c(OC)c(OC)c2)cc1C=O [I.28, 2-methoxy-5-((3,4,5-trimethoxyphenyl)diazenyl)benzaldehyde] | 248 |  |  |  |  |  |  |  |  |  |  |  |  | 17813 | 452 | 360
COc1ccc(N=Nc2cc(OC)c(OC)c(OC)c2)cn1 [I.13, 2-methoxy-5-((3,4,5-trimethoxyphenyl)diazenyl)pyridine] | 270 |  |  |  |  |  |  |  |  |  |  |  |  | 14200 | 440 | 355
COc1ccc(N=Nc2cc(OC)c(OC)c(OC)c2)cc1OC(=O)N1CCCCC1CNC(=O)[C@@H](N)CC(C)C (stereo partly drawn) [I.10, (2-methoxy 5-((3,4,5-trimethoxyphenyl)diazenyl)phenyl) 2-((L-leucinamido)methyl)piperidine 1-carboxylate 2,2,2-trifluoroacetate salt] |  | 0.986 | 0.95 | 0.945 | 0.99 | 0.387 | 0.92 | 0.357 | 0.90 | 0.217 | 0.99 | 0.293 | 0.78 |  |  | 
COc1ccc(N=Nc2cc(OC)c(OC)c(OC)c2)c(NC(C)=O)c1 [I.26, N-(5-methoxy-2-((3,4,5-trimethoxyphenyl)diazenyl)phenyl)acetamide] | 8.4 |  |  |  |  |  |  |  |  |  |  |  |  | 16300 | 475 | 380
COc1ccc(N=Nc2cc(OC)c(OC)c(OC)c2)cc1C(=O)O [I.29, 2-methoxy-5-((3,4,5-trimethoxyphenyl)diazenyl)benzoic acid] | 104 |  |  |  |  |  |  |  |  |  |  |  |  | 20102 | 447 | 365
COc1ccc(N=Nc2cc(OC)c(OC)c(OC)c2)cc1NC(=O)[C@@H](N)CO [I.20, (2-methoxy 5-((3,4,5-trimethoxyphenyl)diazenyl)phenyl)) 1-L-serinamide 2,2,2-trifluoroacetate salt] |  | 1.09 | 0.99 | 1.10 | 1.11 | 1.00 | 1.12 | 0.96 | 1.10 | 0.68 | 1.03 | 0.51 | 1.01 |  |  | 
COc1ccc(N=Nc2cc(OC)c(OC)c(OC)c2)cc1OC [I.11, 1-(3,4-dimethoxyphenyl)-2-(3,4,5-trimethoxyphenyl)diazene] | 40 |  |  |  |  |  |  |  |  |  |  |  |  | 18163 | 460 | 375
COc1ccc(N=Nc2cc(OC)c(OC)c(OC)c2)cc1Br [I.27, 1-(3-bromo-4-methoxyphenyl)-2-(3,4,5-trimethoxyphenyl)diazene] | 129 |  |  |  |  |  |  |  |  |  |  |  |  | 19540 | 445 | 365
COc1cc(N=Nc2ccc(OC)c([N+](=O)[O-])c2F)cc(OC)c1OC [I.7, 1-(2-fluoro-4-methoxy-3-nitrophenyl)-2-(3,4,5-trimethoxyphenyl)diazene] | 50 |  |  |  |  |  |  |  |  |  |  |  |  | 13600 | 455 | 365
COc1cc(N=Nc2ccc(OC)c3ncccc23)cc(OC)c1OC [I.14, 8-methoxy-5-((3,4,5-trimethoxyphenyl)diazenyl)quinoline] | 3.3 |  |  |  |  |  |  |  |  |  |  |  |  | 18000 | 485 | 390
COc1ccc(N=Nc2cc(OC)c(OC)c(OC)c2)c(OC)c1 [I.12, 1-(2,4-dimethoxyphenyl)-2-(3,4,5-trimethoxyphenyl)diazene] | 28 |  |  |  |  |  |  |  |  |  |  |  |  | 12400 | 485 | 380
